Several values for one entry are separate records, joined by “and”; a condition that tells them apart may be missing. Identical values can stand only once.
What was measured:
Assay type in all cases: cell-based, human
MOLT-3 cells = assay: MTT cytotoxicity assay, MOLT-3; settings: means ± SEM
From the text: (§1) U-937, HL-60, MOLT-3, NALM-6, and SK-MEL-1 cells were from DSMZ (German Collection of Microorganisms and Cell Cultures, Braunschweig, Germany). U-937/Bcl-2 cells were kindly provided by Dr. Jacqueline Bréard (INSERM U749, Faculté de Pharmacie Paris-Sud, Châtenay-Malabry, France). The U-937 is a pro-monocytic, human promyelocytic leukemia cell line that was isolated from a histiocytic lymphoma. HL-60 is a human acute myeloid leukemia cell line. MOLT-3 is a human acute lymphoblastic leukemia cell line. NALM-6 is a human B cell precursor leukemia. SK-MEL-1 is a human melanoma cell line growing singly or in clumps (occasional giant, polynucleated cell) in suspension. Cells were cultured in RPMI 1640 medium containing 10% (v/v) heat-inactivated fetal bovine serum, 100 μg/mL streptomycin, and 100 U/mL penicillin, incubated at 37 °C in a humidified atmosphere containing 5% CO2 as described. The doubling times of the cell lines were 24 h in HL-60, 30 h in U-937, U-937/Bcl-2, 40 h in MOLT-3 and NALM-6, and several days in SK-MEL-1 cells. Human peripheral blood mononuclear cells (PBMC) were isolated from heparin-anticoagulated blood of healthy volunteers by centrifugation with Ficoll-Paque Plus (GE Healthcare Bio-Sciences AB, Uppsala, Sweden). PBMC were also stimulated with phytohemagglutinin (2 µg/mL) for 48 h before the experimental treatment. The trypan blue exclusion method was used for counting the cells by a hemocytometer with 95% viability in all the experiments. Compounds were dissolved in dimethyl sulfoxide (DMSO) and kept under dark conditions at 25 °C. […] The cytotoxicity of the synthetic compounds was evaluated by colorimetric 3-(4,5-dimethyl-2-thiazolyl-)-2,5-diphenyl-2H-tetrazolium bromide (MTT) assay as previously described. Briefly, cells (5000 per well) were incubated with increasing concentrations of compounds for 72 h into a 96-well plate. Then, the supernatants were removed and 0.5 mg/mL MTT was added and incubated for 4 h at 37 °C. Sodium dodecyl sulfate (10% w/v) in 0.05 M HCl was added to solubilize the reaction products and the absorbance was measured at 570 nm with a reference wavelength of […] using an ELISA reader (Bio-Rad, Hercules, CA, USA). The IC50 values (concentrations inducing a 50% inhibition of cell viability) were determined graphically for each experiment by a nonlinear regression using the curve fitting routine implemented within the software Prism 5.0 (GraphPad, La Jolla, CA, USA).

NALM-6 cells = assay: MTT cytotoxicity assay, NALM-6; settings: 72 h, MTT, means ± SEM
From the text: as §1

U-937 leukemia cells = assay: Cell cycle and sub-G1 analysis by flow cytometry (propidium iodide); settings: 24 h; for fold increase of sub-G1 cells over control / %G1 / %G2-M / %S / %Sub-G1: 10 µM; for fold increase of sub-G1 cells over control: U-937; for %G1 / %G2-M / %S / %Sub-G1: U-937, means ± S.E.; for cell cycle arrest: U-937, 10 µM
Procedure: (§2) Cells (2.5 × 10^5) were centrifuged for 10 min at 500× g, washed with cold PBS, fixed with ice-cold 75% ethanol and stored at −20 °C overnight. Samples were then centrifuged at 500× g for 10 min at 4 °C, washed with PBS, resuspended in 200 μL of PBS containing 100 μg/mL RNase and 50 μg/mL propidium iodide and incubated for 1 h in the dark. The DNA content was analyzed by flow cytometry with a BD FACSVerse^TM cytometer (BD Biosciences, San Jose, CA, USA). Apoptosis was also evaluated by flow cytometric analysis of double-staining annexin V-FITC and propidium iodide cells as previously described.

U-937 cells [1] = assay: Annexin V-FITC/propidium iodide flow cytometry, U-937; settings: U-937, 10 µM, 24 h; for annexin V-FITC positive cells: control 3.5%
Procedure: as §2

[2] = test system: caspases-3/7, -8, and -9 in U-937 cells; assay: Caspase activity in lysates of treated cells (colorimetric tetrapeptide substrates); settings: U-937, 10 µM, 24 h
Procedure: Caspase activity was determined by measuring proteolytic cleavage of specific chromogenic substrates as previously described. Briefly, cells were treated with the specified guanidines for 24 h, harvested by centrifugation (1000× g for 5 min at 4 °C), washed twice with PBS, resuspended in lysis buffer (50 mM HEPES, pH 7.4, 0.1 mM EDTA, 1 mM dithiothreitol, and 0.1% Chaps), spun (17,000× g for 10 min at 4 °C) and the supernatants were normalized by protein concentration and used to determine enzyme activity. The net increase in absorbance at 405 nm after incubation at 37 °C was indicative of caspase activity. The colorimetric substrates were DEVD-pNA (for caspase-3 like protease activity), IETD-pNA (for caspase-8 activity), and LEHD-pNA (for caspase-9 activity).

U-937 cells [3] = assay: Western blot of PARP, caspases and cytosolic cytochrome c; settings: 24 h; for full-length PARP protein (immunoblot): U-937, 10 µM; for mitochondrial cytochrome c release (cytosolic fraction, immunoblot): U-937, increasing concentrations
Procedure: For whole cell lysates, cells were harvested by centrifugation (500× g, 10 min, 4 °C), washed twice with PBS, and pellets were resuspended in lysis buffer (1% Triton X-100, 10 mM sodium fluoride, 2 mM EDTA, 20 mM Tris-HCl (pH 7.4), 2 mM tetrasodium pyrophosphate, 10% glycerol, 137 mM NaCl, and 20 mM sodium β-glycerophosphate), with the protease inhibitors phenylmethylsulfonyl fluoride (PMSF, 1 mM), aprotinin, leupeptin, and pepstatin A (5 μg/mL each) and kept on ice for 15 min. Cells were sonicated on ice 5 times (5 s each, with intervals between each sonication of 5 s) with a Braun Labsonic 2000 microtip sonifier and centrifuged (11,000× g, 10 min, 4 °C). For subcellular fractionation, cells were washed twice with PBS and then resuspended in ice-cold buffer (20 mM HEPES (pH 7.5), 250 mM sucrose, 10 mM KCl, 1.5 mM MgCl2, 1 mM EDTA, 1 mM EGTA, and 1 mM dithiothreitol containing protease inhibitors (0.1 mM PMSF and 1 µg/mL leupeptin, aprotinin, and pepstatin A)). After 15 min on ice, cells were lysed by pushing them several times through a 29-gauge needle, and the lysate was centrifuged at 1000× g for 5 min at 4 °C. The resulting supernatant fraction was centrifuged at 15,000× g for 20 min at 4 °C, and the resulting supernatant was used as the cytosolic fraction. The Bradford method was used to determine protein concentration. The samples loaded in sodium dodecyl sulfate-polyacrylamide gel (from 7.5 to 15% depending on the molecular weight of interest) were prepared with the same protein amount and boiled for 5 min. The proteins were transferred to poly(vinylidene difluoride) membranes for 20 h at 20 V. The membranes were blocked with 10% nonfat milk in Tris-buffered saline (50 mM Tris-HCl (pH 7.4), 150 mM NaCl) containing 0.1% Tween-20 (TBST) for 1 h, followed by incubation with specific antibodies against caspase-3, PARP, caspase-9, β-actin, tubulin, and cytochrome c overnight at 4 °C. Membranes were washed three times with TBST and incubated for 1 h with the specific secondary antibody and the antigen-antibodies complexes were visualized by enhanced chemiluminescence using the manufacturer’s protocol.

Row | Compound | IC50 (MOLT-3 cells; Homo sapiens, MOLT-3, 72 h) [µM] | IC50 (NALM-6 cells; Homo sapiens, NALM-6, 72 h) [µM] | fold increase of sub-G1 cells over control (U-937 leukemia cells) | %G1 (U-937 leukemia cells) [%] | %G2-M (U-937 leukemia cells) [%] | %S (U-937 leukemia cells) [%] | %Sub-G1 (U-937 leukemia cells) | cell cycle arrest (U-937 leukemia cells) | fold increase of annexin V-FITC positive cells over control (U-937 cells [1]) [fold] | annexin V-FITC positive cells (U-937 cells [1]) [%] | caspase-8 activation [2] | increase of caspase-3/7 and caspase-9 activities compared with control [2] | full-length PARP protein (immunoblot) (U-937 cells [3]) | mitochondrial cytochrome c release (cytosolic fraction, immunoblot) (U-937 cells [3]) | IC50 (MOLT-3 cells; 72 h) [µM] | IC50 (NALM-6 cells) [µM]
1 | Cc1ccc(S(=O)(=O)NC(=Nc2ccc(/C=C/C(=O)c3c(O)cccc3OCc3ccccc3)cc2)N2CCN(C)CC2)cc1 [Compound 6f] | 1.5 | 2.7 | ~ 10 fold | 35.2 ± 3.8 | 10.8 ± 1.6 | 28.3 ± 0.2 | 25.1% and 25.1 ± 2.6 % | not caused by a significant cell cycle arrest in any phase | 11 | 38 | less activated | approximately three-fold | dramatically decreased | concentration-dependent release |  | 
2 | O=C(/C=C/c1ccc(N=C(Nc2ccccc2)N2CCCCC2)cc1)c1c(O)cccc1OCc1ccccc1 [Compound 6i] | < 10 | ~10 | ~ 13 fold | 35.9 ± 2.1 | 8.4 ± 0.1 | 23.6 ± 2.4 | 31.6% and 31.6 ± 4.5 % | not caused by a significant cell cycle arrest in any phase | 10 | 36 | less activated | two-fold | dramatically decreased | concentration-dependent release | 7.1 ± 1.3 | 10.8 ± 0.5

— PMC9779571, “Guanidine Derivatives Containing the Chalcone Skeleton Are Potent Antiproliferative Compounds against Human Leukemia Cells” (International Journal of Molecular Sciences, 2022)
